The source of these data is patent US8759348B2, “Use of 4-(pyrrolidin-1-yl)quinoline compounds to kill clinically latent microorganisms” (Helperby Therapeutics Limited, priority 2007, dated 2014).

Test [1] deals with Coagulase negative staphylococcus stationary phase bacteria. The test is described as follows: Bactericidal activity against stationary-phase cultures (CFU counts). The conditions noted are these: 5 μg/mL of test compound. Type of test: cell-based, Coagulase negative staphylococcus (CNS).
For test [2], the system named is Enterococcus stationary phase bacteria. The test is described as above. Conditions: 5 μg/mL of test compound. Type of test: cell-based.
Test [3] concerns Streptococcus pyogenes stationary phase bacteria. The test is described as above. Type of test: cell-based. The conditions noted are these: 20 μg/mL of test compound.
The test system of test [4] is methicillin-resistant Staph. aureus stationary phase bacteria. Described as above. Type of test: cell-based, Methicillin resistant S. aureus (MRSA). Conditions: MRSA stationary phase, 10 μg/mL of test compound.
The subject of test [5] is Streptococcus agalactiae stationary phase bacteria. Described as above. It counts as cell-based. The conditions noted are these: 10 μg/mL of test compound.
Test [6] relates to stationary phase Candida albicans. The test is described as follows: Activity against stationary-phase cultures of Candida albicans (CFU counts). Type of test: cell-based. Conditions: 10 μg/mL of test compound.
Test [7] deals with stationary phase Mycobacterium tuberculosis. The test is described as follows: Bactericidal activity against M. tuberculosis stationary-phase cultures (Model 1). Type of test: cell-based. The conditions noted are these: 10 μg/mL of test compound.
Test [8] relates to Streptococcus pneumoniae stationary phase bacteria. The test is described as follows: Bactericidal activity against stationary-phase cultures (CFU counts). The conditions noted are these: 10 μg/mL of test compound. It counts as cell-based.
For test [9], the system named is E. coli K12 stationary phase bacteria. Described as above. Type of test: cell-based, Escherichia coli K12. Conditions: 10 μg/mL of test compound.
For test [10], the system named is Propionibacterium acnes stationary phase bacteria. The description is as above. The conditions noted are these: 10 μg/mL of test compound. Type of test: cell-based.
In test [11] the test system is Staph. aureus stationary phase bacteria. Described as above. Type of test: cell-based, Staphylococcus aureus. Conditions: 5 μg/mL of test compound.

As for `Cc1cc(N2CCC(c3ccccc3)C2)c2cc(NC(=O)c3cc(C)[nH]n3)ccc2n1.Cl` (centres unmarked) [Example 22, 5-Methyl-1H-pyrazole-3-carboxylic acid [2-methyl-4-(3-phenylpyrrolidin-1-yl)-quinolin-6-yl]amide hydrochloride], the log kill in test [1] was 5.99; in test [2] it was 3.22.
`COc1ccc(C2CCN(c3cc(C)nc4ccc(Oc5ccccc5)cc34)C2)cc1.Cl` (centres unmarked) [Example 9, 4-[3-(4-Methoxyphenyl)pyrrolidin-1-yl]-2-methyl-6-phenoxyquinoline hydrochloride] had a log kill in [3] of 6.42.
As for `Cc1cc(N2CCC(Cc3ccccc3)C2)c2cc(Oc3ccccc3)ccc2n1.Cl` (centres unmarked) [Example 8, 4-(3-Benzylpyrrolidin-1-yl)-2-methyl-6-phenoxyquinoline hydrochloride], the log kill is reported as 6.34 in test [4], 0.97 in [5], 3.70 in [6] and 5.76 in test [7].
As for `Cc1cc(N2CCC(c3ccccc3)C2)c2cc(Oc3ccccc3)ccc2n1.Cl` (centres unmarked) [Example 39, 2-Methyl-6-phenoxy-4-(3-phenylpyrrolidin-1-yl)quinoline hydrochloride], the log kill in [8] stood at 7.32; in test [9] it was 6.80; in test [10], 6.34.
For the compound `Cc1cc(N2CCC(c3ccccc3)C2)c2cc(OCCc3ccccc3)ccc2n1.Cl` (centres unmarked) [Example 6, 2-Methyl-6-phenethyloxy-4-(3-phenylpyrrolidin-1-yl)quinoline hydrochloride], the log kill in test [11] was found to be 6.16.
